Results reported in US20180194762A1 (Pharmacyclics LLC, priority 2017, published 2018).
Read-outs that look alike come from different tables or passages of the source.

Legend:
Assay type in all cases: biochemical
TEC = target: T1, TEC (Homo sapiens, UniProt P42680); experiment: Inhibition of a panel of kinases (in vitro HotSpot kinase assay, 33P-ATP, 1 μM ATP); details: for IC50: HotSpot kinase assay, 1 μM ATP; for TEC/Btk: ratio of TEC IC50 to Btk IC50 (selectivity)
T1 sequence (P42680 1-631): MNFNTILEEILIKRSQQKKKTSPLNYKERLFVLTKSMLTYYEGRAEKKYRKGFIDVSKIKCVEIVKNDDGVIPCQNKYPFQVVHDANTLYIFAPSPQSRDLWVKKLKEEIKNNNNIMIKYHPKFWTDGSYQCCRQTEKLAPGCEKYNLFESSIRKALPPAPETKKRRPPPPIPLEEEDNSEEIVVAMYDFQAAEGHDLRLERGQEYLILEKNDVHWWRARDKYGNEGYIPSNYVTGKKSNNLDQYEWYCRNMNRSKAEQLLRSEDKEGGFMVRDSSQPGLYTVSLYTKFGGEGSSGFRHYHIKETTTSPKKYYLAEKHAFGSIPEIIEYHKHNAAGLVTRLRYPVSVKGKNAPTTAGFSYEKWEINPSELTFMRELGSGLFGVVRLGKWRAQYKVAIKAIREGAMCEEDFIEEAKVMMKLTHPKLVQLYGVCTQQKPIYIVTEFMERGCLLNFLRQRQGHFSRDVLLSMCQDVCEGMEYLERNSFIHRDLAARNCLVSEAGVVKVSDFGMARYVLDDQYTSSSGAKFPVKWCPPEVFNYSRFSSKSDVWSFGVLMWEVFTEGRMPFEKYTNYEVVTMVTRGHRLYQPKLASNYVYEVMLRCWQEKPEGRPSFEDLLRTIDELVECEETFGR
Outline: (§1)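 Purified kinase enzymes were incubated with an appropriate substrate and 33P-labelled ATP at 1 μM ATP. Inhibition was measured radiometrically from incorporation of the 33P label.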

panel of kinases = target: T2, panel of kinases (Homo sapiens, UniProt P51813); experiment: Inhibition of a panel of kinases (in vitro HotSpot kinase assay, 33P-ATP, 1 μM ATP), other kinases; details: BMX wild-type, read-out: BMX-WT IC50
T2 sequence (P51813 1-675): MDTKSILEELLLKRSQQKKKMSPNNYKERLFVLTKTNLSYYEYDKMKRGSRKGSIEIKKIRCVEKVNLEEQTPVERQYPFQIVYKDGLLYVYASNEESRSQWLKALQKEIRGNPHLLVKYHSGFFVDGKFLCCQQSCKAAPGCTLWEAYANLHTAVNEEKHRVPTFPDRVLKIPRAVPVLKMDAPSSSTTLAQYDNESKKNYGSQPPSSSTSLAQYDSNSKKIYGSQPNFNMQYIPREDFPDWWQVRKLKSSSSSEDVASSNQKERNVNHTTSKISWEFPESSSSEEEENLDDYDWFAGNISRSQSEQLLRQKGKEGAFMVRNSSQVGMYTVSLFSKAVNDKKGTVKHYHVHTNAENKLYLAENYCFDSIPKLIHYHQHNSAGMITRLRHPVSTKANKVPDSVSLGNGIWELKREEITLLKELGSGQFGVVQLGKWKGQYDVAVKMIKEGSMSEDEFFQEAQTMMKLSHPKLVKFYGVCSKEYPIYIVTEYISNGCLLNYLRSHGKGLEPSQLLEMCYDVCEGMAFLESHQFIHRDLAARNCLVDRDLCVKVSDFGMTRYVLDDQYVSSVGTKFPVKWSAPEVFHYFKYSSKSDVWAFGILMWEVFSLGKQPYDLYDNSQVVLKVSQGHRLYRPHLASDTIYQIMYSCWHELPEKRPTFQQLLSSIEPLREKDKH
Outline: as §1

Btk = target: T3, Btk (Homo sapiens, UniProt Q06187); experiment: Btk in vitro inhibitory activity (one of Method A TR-FRET, Method B electrophoretic mobility shift, Method C radiometric filter binding)
T3 construct: purified from insect cells as a full-length construct containing a N-terminal 6X-His tag; His6 (N); made in house; host or cells: insect cells (Method C)
Outline: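 Method A: TR-FRET with 0.5 nM Btk at [ATP]=Km, EDTA-quenched, 665/615 nm ratio; Ki(app) converted to IC50. Method B: 1 nM full-length His6 human BTK, 1 μM FAM peptide, pH 7.5, mobility-shift product/sum ratio, 12-point 4-parameter fit. Method C: radiometric filter binding, 8 nM His-tagged BTK, 0.2 mg/mL poly-Glu-Tyr.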

[1] = wild-type Btk, read-out: Btk-WT IC50
[2] = method is one of A, B or C, not stated which, read-out: IC50 values against Btk

T3 sequence (Q06187 whole entry): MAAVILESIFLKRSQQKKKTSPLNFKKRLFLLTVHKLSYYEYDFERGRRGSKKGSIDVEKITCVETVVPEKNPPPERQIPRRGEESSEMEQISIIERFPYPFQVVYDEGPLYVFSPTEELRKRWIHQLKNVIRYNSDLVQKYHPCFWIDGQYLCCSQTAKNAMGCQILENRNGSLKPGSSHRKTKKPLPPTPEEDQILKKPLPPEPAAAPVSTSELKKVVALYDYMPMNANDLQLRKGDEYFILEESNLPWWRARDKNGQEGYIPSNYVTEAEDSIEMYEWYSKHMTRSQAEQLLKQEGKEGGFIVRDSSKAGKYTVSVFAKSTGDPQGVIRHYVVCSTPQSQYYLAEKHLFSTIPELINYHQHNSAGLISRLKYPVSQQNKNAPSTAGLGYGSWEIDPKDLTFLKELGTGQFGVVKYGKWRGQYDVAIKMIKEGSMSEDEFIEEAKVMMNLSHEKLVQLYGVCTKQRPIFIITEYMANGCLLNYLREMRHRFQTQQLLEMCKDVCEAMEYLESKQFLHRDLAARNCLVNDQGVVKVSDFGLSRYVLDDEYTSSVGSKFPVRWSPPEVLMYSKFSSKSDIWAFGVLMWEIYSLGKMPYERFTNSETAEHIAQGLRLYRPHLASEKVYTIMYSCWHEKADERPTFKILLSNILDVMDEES

| IC50 (TEC) [nM] | TEC/Btk (TEC) | IC50 (panel of kinases) [nM] | IC50 (Btk; [1]) [nM] | IC50 (Btk; [2]) [nM] | SMILES |
| --- | --- | --- | --- | --- | --- |
| 103 | 184 | 132 | 0.559 | – | C=CC(=O)N1CC[C@@H](Nc2n[nH]c3nccc(-c4ccc(C5(NC(=O)c6noc(C(C)(C)C)n6)CC5)cc4)c23)C1 [Compound 4, (R)—N-(1-(4-(3-((1-acryloylpyrrolidin-3-yl)amino)-1H-pyrazolo[3,4-b]pyridin-4-yl)phenyl)cyclopropyl)-5-(tert-butyl)-1,2,4-oxadiazole-3-carboxamide] |
| 340 | – | 95.7 | 4.43 | – | C=CC(=O)N1CC[C@@H](Nc2n[nH]c3nccc(-c4ccc(CNC(=O)c5ccc6c(c5)OCCCO6)c(F)c4)c23)C1 [Example 351, (R)-N-{[2-fluoro-4-(3-{[1-(prop-2-enoyl)pyrrolidin-3-yl]amino}-1H-pyrazolo[3,4-b]pyridin-4-yl)phenyl]methyl}-3,4-dihydro-2H-1,5-benzodioxepine-7-carboxamide] |
| > 10000 | >100 | > 10000 | > 10000 | – | CC(C)(C)c1nc(C(=O)Nc2cccc(-c3ccnc4[nH]nc(N[C@@H]5CCNC5)c34)c2CO)no1 [Example 165, t-tert-butyl-N-[2-(hydroxymethyl)-3-(3-{[(3R)-pyrrolidin-3-yl]amino}-1H-pyrazolo[3,4-b]pyridin-4-yl)phenyl]-1,2,4-oxadiazole-3-carboxamide] |
| 4880 | – | 1770 | 31 | – | CC(C)c1nc(C(=O)NCc2ccc(-c3ccnc4[nH]nc(N5CC[C@@H](N)C5)c34)cc2F)co1 [Example 357, N-[(4-{3-[(3R)-3-aminopyrrolidin-1-yl]-1H-pyrazolo[3,4-b]pyridin-4-yl}-2-fluorophenyl)methyl]-2-(propan-2-yl)-1,3-oxazole-4-carboxamide] |
| 6.48 | – | 16.9 | 0.222 | – | C=CC(=O)N[C@@H]1CCN(c2n[nH]c3nccc(-c4ccc(CNC(=O)c5cc(C(C)(C)C#N)on5)c(F)c4)c23)C1 [Example 402, 5-(2-cyanopropan-2-yl)-N-{[2-fluoro-4-(3-{(3R)-3-[(prop-2-noyl)amino]pyrrolidin-1-yl}-1H-pyrazolo[3,4-b]pyridin-4-yl)phenyl]methyl}-1,2-oxazole-3-carboxamide] |
| > 10000 | – | 7460 | > 10000 | – | CC(C)(C)CCC(=O)NCc1ccc(-c2ccnc3[nH]nc(N[C@H]4CC[C@H](O)CC4)c23)cc1F [Compound 19, N-{[2-fluoro-4-(3-{[(1r,4r)-4-hydroxycyclohexyl]amino}-1H-pyrazolo[3,4-b]pyridin-4-yl)phenyl]methyl}-4,4-dimethylpentanamide] |
| > 10000 | – | 6470 | > 10000 | – | CC(C)(C)c1ccc(C(=O)NC2(c3ccc(-c4ccnc5[nH]nc(N[C@H]6CC[C@H](O)CC6)c45)cc3)CC2)cc1 [Compound 22, 4-tert-butyl-N-{1-[4-(3-{[(1r,4r)-4-hydroxycyclohexyl]amino}-1H-pyrazolo[3,4-b]pyridin-4-yl)phenyl]cyclopropyl}benzamide] |
| 107 | 594 | 92 | 0.18 | < 10 | CC#CC(=O)N1CC[C@@H](Nc2n[nH]c3nccc(-c4ccc(CNC(=O)c5cc(C(C)(C)C)on5)c(F)c4)c23)C1 [Example 111, N-{[4-(3-{[(3R)-1-(but-2-ynoyl)pyrrolidin-3-yl]amino}-1H-pyrazolo[3,4-b]pyridin-4-yl)-2-fluorophenyl]methyl}-5-tert-butyl-1,2-oxazole-3-carboxamide] |
| 22 | – | 44 | 0.139 | < 10 | CC#CC(=O)N1CC[C@@H](Nc2n[nH]c3nccc(-c4ccc(CNC(=O)c5noc(C(C)(C)C)n5)c(F)c4)c23)C1 [Example 24, N-{[4-(3-{[(3R)-1-(but-2-ynoyl)pyrrolidin-3-yl]amino}-1H-pyrazolo[3,4-b]pyridin-4-yl)-2-fluorophenyl]methyl}-5-tert-butyl-1,2,4-oxadiazole-3-carboxamide] |
| 28 | 305 | 12 | 0.0924 | < 10 | C=CC(=O)N1C[C@H](Nc2n[nH]c3nccc(-c4ccc(CNC(=O)c5nc(C(C)(C)C)no5)c(F)c4)c23)CC[C@@H]1C [Example 148, 3-tert-butyl-N-{[2-fluoro-4-(3-{[(3R,6S)-6-methyl-1-(prop-2-enoyl)piperidin-3-yl]amino}-1H-pyrazolo[3,4-b]pyridin-4-yl)phenyl]methyl}-1,2,4-oxadiazole-5-carboxamide] |
| 59.4 | – | 46.1 | 1.76 | – | C=CC(=O)N1CCC[C@@H](Nc2n[nH]c3nccc(-c4ccc(CNC(=O)c5cc(CC(C)C)on5)c(F)c4)c23)[C@H]1C [Example 293, N-{[2-fluoro-4-(3-{[(2R,3R)-2-methyl-1-(prop-2-enoyl)piperidin-3-yl]amino}-1H-pyrazolo[3,4-b]pyridin-4-yl)phenyl]methyl}-5-(2-methylpropyl)-1,2-oxazole-3-carboxamide] |
| 6920 | 591 | 8370 | 11.7 | – | CN1CCCN([C@@H]2CCN(c3n[nH]c4nccc(-c5ccc(CNC(=O)c6noc(C(C)(C)C)n6)c(F)c5)c34)C2)C1=O [Example 250, 5-tert-butyl-N-[(2-fluoro-4-{3-[(3R)-3-(3-methyl-2-oxo-1,3-diazinan-1-yl)pyrrolidin-1-yl]-1H-pyrazolo[3,4-b]pyridin-4-yl}phenyl)methyl]-1,2,4-oxadiazole-3-carboxamide] |
| 52.6 | – | 30.3 | 1.19 | – | C=CC(=O)N[C@@H]1CCN(c2n[nH]c3nccc(-c4ccc(CNC(=O)c5nc6ccccc6o5)c(F)c4)c23)C1 [Example 395, N-{[2-fluoro-4-(3-{(3R)-3-[(prop-2-enoyl)amino]pyrrolidin-1-yl}-1H-pyrazolo[3,4-b]pyridin-4-yl)phenyl]methyl}-1,3-benzoxazole-2-carboxamide] |
| 6920 | 505 | 7600 | 13.7 | – | CC(=O)N1CC[C@H](Nc2n[nH]c3nccc(-c4ccc(CNC(=O)c5noc(C(C)(C)C)n5)c(F)c4)c23)C1 [Example 92, N-{[4-(3-{[(3S)-1-acetylpyrrolidin-3-yl]amino}-1H-pyrazolo[3,4-b]pyridin-4-yl)-2-fluorophenyl]methyl}-5-tert-butyl-1,2,4-oxadiazole-3-carboxamide] |
| 964 | 88 | 595 | 11 | – | CN(C)C/C=C/C(=O)N1CC[C@@H](Nc2n[nH]c3nccc(-c4ccc(C5(NC(=O)c6noc(C(C)(C)C)n6)CC5)cc4)c23)C1 [Compound 29, (R,E)-5-(tert-butyl)-N-(1-(4-(3-((1-(4-(dimethylamino)but-2-enoyl)pyrrolidin-3-yl)amino)-1H-pyrazolo[3,4-b]pyridin-4-yl)phenyl)cyclopropyl)-1,2,4-oxadiazole-3-carboxamide] |
| 278 | – | 69.2 | 6.54 | – | C=CC(=O)N1CC[C@@H](Nc2n[nH]c3nccc(-c4ccc(CNC(=O)c5ccc6sc(C)nc6c5)c(F)c4)c23)C1 [Example 378, N-{[2-fluoro-4-(3-{[(3R)-1-(prop-2-enoyl)pyrrolidin-3-yl]amino}-1H-pyrazolo[3,4-b]pyridin-4-yl)phenyl]methyl}-2-methyl-1,3-benzothiazole-5-carboxamide] |
